ChEMBL document CHEMBL5729071, “Cyano thienotriazolodiazepines and uses thereof” (2022)

Biological target: Bromodomain-containing protein 4 (Homo sapiens, UniProt O60885)
Experiment: Assays were performed as described previously with minor modifications from the manufacturer's protocol (PerkinElmer, USA). All reagents were diluted in 50 mM HEPES, 100 mM NaCl, 0.1% BSA, pH 7.4 supplemented with 0.05% CHAPS and allowed to equilibrate to room temperature prior to addition to plates. […] Plates were sealed and incubated for a further 30 minutes, before the addition of 4 μl of streptavidin-coated donor beads (25 μg/ml) and 4 μl nickel chelate acceptor beads (25 μg/ml) under low light conditions. Plates were foil-sealed to protect from light, incubated at room temperature for 60 minutes and read on a PHERAstar FS plate reader (BMG Labtech, Germany) using an AlphaScreen 680 excitation/570 emission filter set. IC50 values were calculated in Prism 5 (GraphPad Software, USA) after normalization against corresponding DMSO controls and are given as the final concentration of compound in the 20 μl reaction volume.

## Cc1sc2c(c1C)C(c1ccc(C#N)cc1)=N[C@@H](CC(=O)OC(C)(C)C)c1nnc(C)n1-2
  IC50: 97 nM
